Counter-ions that a name gives are not always drawn.

Consider 28 compounds from patent US20260008780A1, “SUBSTITUTED 3,4-DIHYDROISOQUINOLIN-1(2H)-ONE DERIVATIVES AND RELATED USES” (NodThera Limited, priority 2022, published 2026).

This experiment relates to IL-1β release upon NLRP3 activation in peripheral blood mononuclear cells (PBMC). As to the kind of experiment: PBMC IC50 Determination Assay. To be noted: Homo sapiens; PBMC from buffy coats, LPS 3 h, compound 30 min, then ATP (5 mM) or nigericin (10 μM) 1 h; IL-1β in media by ELISA (Protocol A) or HTRF (Protocol B). The class given is cell-based. The procedure: The compounds of the present disclosure were tested for their inhibitory activity against IL-1β release upon NLRP3 activation in peripheral blood mononuclear cells (PBMC).
Protocol A. PBMC were isolated from buffy coats by density gradient centrifugation on Histopaque-1077 (Sigma, cat no. 10771). Isolated cells were seeded into the wells of a 96-well plate and incubated for 3 h with lipopolysaccharide (LPS). Following medium exchange, the compounds of the present disclosure were added (a single compound per well) and the cells were incubated for 30 min. Next, the cells were stimulated either with ATP (5 mM) or nigericin (10 μM) for 1 h and the cell culture media from the wells were collected for further analysis.
The release of IL-1β into the media was determined by a quantitative detection of IL-1β in the media using an IL-1p enzyme-linked immunosorbent assay (ELISA) Ready-SET-Go!, eBioscience cat. No. 88-7261-88. Briefly, in a first step, high affinity binding plates (Corning, Costar 9018 or NUNC Maxisorp Cat No. 44-2404) were coated overnight at 4° C. with specific capture antibody included in the kit (anti-human IL-1β ref 14-7018-68). Subsequently, plates were blocked with blocking buffer for 1 h at room temperature (rt) and after washing with a buffer (PBS with 0.05% Tween-20) incubated with protein standard and culture media. After 2 h of incubation at rt, plates were washed and incubated with biotinylated detection antibody included in the kit (anti-human IL-1β Biotin ref. 33-7110-68) for 1 h at rt. Plates were washed and incubated with HRP-streptavidin for 30 min at rt and washed again. The signal was developed after addition of 3,3′,5,5′-tetramethylbenzidine-peroxidase (TMB) until colour appeared and the reaction was stopped by 2 M H2SO4. A microplate spectrophotometer (BioTek) was used to detect signals with 450 nm. The detection range of IL-1β ELISA was […].
Protocol B. PBMC were isolated from buffy coats by density gradient centrifugation on Histopaque-1077 (Sigma, cat no. 10771). Isolated cells were seeded into the wells (280,000 cells/well) of a 96-well plate and incubated for 3 h with lipopolysaccharide (LPS, 1 μg/mL diluted 1000× from a 1 mg/mL stock solution). The compounds of the present disclosure were added (a single compound per well) and the cells were incubated for 30 min. Next, the cells were stimulated with ATP (5 mM final concentration diluted 20× from a 100 mM stock solution) for 1 h and the cell culture media from the wells were collected for further analysis.
The release of IL-1β into the media was determined by quantitative detection of IL-1β in the media using HTRF®, CisBio cat. No. 62HIL1BPEH. Briefly, cell culture supernatant were dispensed directly into the assay plate containing antibodies labelled with the HTRF® donor and acceptor. A microplate spectrophotometer (BMG) was used to detect signals at 655 nm and 620 nm. The detection range of IL-1β HTRF® was 39-6500 μg/mL.
In general terms: ELISA stands for enzyme-linked immunosorbent assay.
Regarding `C[C@@H]1CN(CC(=O)Nc2ncccn2)C(=O)c2cc3sc(Cl)cc3n21` (racemic) [Compound 9, N-Pyrimidin-2-yl-2-[rac-(12R)-4-chloro-12-methyl-9-oxo-5-thia-1,10-diazatricyclo[6.4.0.02,6]dodeca-2(6),3,7-trien-10-yl]acetamide], the 50% inhibitory concentration (IC50) (in general, the midpoint of a concentration-inhibition curve) lay within 1000 to 3000 nM.
Then `CC1Cn2cccc2C(=O)N1CC(=O)N[C@@H]1CCCN(C2CC2)C1` (stereo partly drawn) [Compound 1, N-[(3R)-1-Cyclopropyl-3-piperidyl]-2-(3-methyl-1-oxo-3,4-dihydropyrrolo[1,2-a]pyrazin-2-yl)acetamide hydrochloride], with 3000 to 10000 nM; and `C[C@]1(O)C[C@@H](NC(=O)CN2CC3(CC3)n3c(cc4sc(Cl)cc43)C2=O)C1` [Compound 2, cis-2-(4-Chloro-9-oxo-spiro[5-thia-1,10-diazatricyclo[6.4.0.0^2.6]dodeca-2(6),3,7-triene-12,1′-cyclopropane]-10-yl)-N-(3-hydroxy-3-methylcyclobutyl) acetamide], with 1000 to 3000 nM; and `O=C(CN1CC2(CC2)n2c(cc3sc(Cl)cc32)C1=O)Nc1ncccn1` [Compound 3, 2-(4-Chloro-9-oxo-spiro[5-thia-1,10-diazatricyclo[6.4.0.02,6]dodeca-2(6),3,7-triene-12,1′-cyclopropane]-10-yl)-N-pyrimidin-2-yl-acetamide], with 100 to 1000 nM.
`O=C(CN1CC2(CC2)n2c(cc3sc(Cl)cc32)C1=O)NC1CC2(COC2)C1` [Compound 4] displayed an IC50 of 1000 to 3000 nM.
Then `Cc1nc(NC(=O)CN2CC3(CC3)n3c(cc4sc(Cl)cc43)C2=O)ns1` [Compound 5, 2-(4-Chloro-9-oxo-spiro[5-thia-1,10-diazatricyclo[6.4.0.0^2,6]dodeca-2(6),3,7-triene-12,1′-cyclopropane]-10-yl)-N-(5-methyl-1,2,4-thiadiazol-3-yl)acetamide], with 1000 to 3000 nM; and `O=C(CN1CC2(CC2)n2c(cc3sc(Cl)cc32)C1=O)Nc1ncc(F)cn1` [Compound 6, 2-(4-Chloro-9-oxo-spiro[5-thia-1,10-diazatricyclo[6.4.0.0^2.6]dodeca-2(6),3,7-triene-12,1′-cyclopropane]-10-yl)-N-(5-fluoropyrimidin-2-yl)acetamide], with < 100 nM; and `CCn1cc2c(n1)C1(CC1)CN(CC(=O)Nc1ncc(F)cn1)C2=O` [Compound 7, 2-(2-Ethyl-4-oxo-spiro[6H-pyrazolo[4,3-c]pyridine-7,1′-cyclopropane]-5-yl)-N-(5-fluoropyrimidin-2-yl)acetamide], with 1000 to 3000 nM.
The result for `CC(C)c1cc2n(n1)C1(CC1)CN(CC(=O)Nc1ncccn1)C2=O` [Compound 8, 2-(2-Isopropyl-4-oxo-spiro[6H-pyrazolo[1,5-a]pyrazine-7,1′-cyclopropane]-5-yl)-N-pyrimidin-2-yl-acetamide] reads 3000 to 10000 nM; that for `C[C@@H]1CN(CC(=O)N[C@H]2C[C@@](C)(O)C2)C(=O)c2cc3sc(Cl)cc3n21` [Compound 10, 2-[(12R)-4-Chloro-12-methyl-9-oxo-5-thia-1,10-diazatricyclo[6.4.0.02,6]dodeca-2(6),3,7-trien-10-yl]-N-(3-hydroxy-3-methyl-cyclobutyl)acetamide], 3000 to 10000 nM.
`CC(C)c1cc2n(c1)C1(CC1)CN(CC(=O)Nc1ncccn1)C2=O` [Compound 11, 2-(7-Isopropyl-1-oxo-spiro[3H-pyrrolo[1,2-a]pyrazine-4,1′-cyclopropane]-2-yl)-N-pyrimidin-2-yl-acetamide]: the half-inhibitory concentration (IC50) lay in the range of 3000 to 10000 nM.
For `CC(C)c1nc2c(s1)C(=O)N(CC(=O)Nc1ncccn1)CC21CC1` [Compound 12, 2-(2-Isopropyl-4-oxo-spiro[6H-thiazolo[5,4-c]pyridine-7,1′-cyclopropane]-5-yl)-N-pyrimidin-2-yl-acetamide], the IC50 was in the range of 3000 to 10000 nM.
The result for `CCc1nc2c(s1)C(=O)N(CC(=O)Nc1ncccn1)CC21CC1` [Compound 13, 2-(2-Ethyl-4-oxo-spiro[6H-thiazolo[5,4-c]pyridine-7,1′-cyclopropane]-5-yl)-N-pyrimidin-2-yl-acetamide] reads 3000 to 10000 nM.
Then `CCc1cc2c(s1)C(=O)N(CC(=O)Nc1ncccn1)CC21CC1` [Compound 14, 2-(2-Ethyl-7-oxo-spiro[5H-thieno[2,3-c]pyridine-4,1′-cyclopropane]-6-yl)-N-pyrimidin-2-yl-acetamide], with 100 to 1000 nM.
`O=C(CN1CC2(CC2)c2nc(C3CC3)sc2C1=O)Nc1ncccn1` [Compound 15, 2-(2-Cyclopropyl-4-oxo-spiro[6H-thiazolo[5,4-c]pyridine-7,1′-cyclopropane]-5-yl)-N-pyrimidin-2-yl-acetamide] gave an IC50 of 100 to 1000 nM.
Take `CCOC(=O)c1cnc(NC(=O)CN2CC3(CC3)c3nc(C4CC4)sc3C2=O)nc1` [Compound 16, Ethyl 2-[[2-(2-cyclopropyl-4-oxo-spiro[6H-thiazolo[5,4-c]pyridine-7,1′-cyclopropane]-5-yl)acetyl]amino]pyrimidine-5-carboxylate]: the IC50 was 1000 to 3000 nM.
`CC(C)n1cc2c(n1)C1(CC1)CN(CC(=O)Nc1ncccn1)C2=O` [Compound 17, 2-(2-Isopropyl-4-oxo-spiro[6H-pyrazolo[4,3-c]pyridine-7,1′-cyclopropane]-5-yl)-N-pyrimidin-2-yl-acetamide] had a half-maximal inhibitory concentration (IC50) of 3000 to 10000 nM.
Then `CCc1cc2c(o1)C1(CC1)CN(CC(=O)Nc1ncccn1)C2=O` [Compound 18, 2-(2′-Ethyl-4′-oxo-4′H-spiro[cyclopropane-1,7′-furo[3,2-c]pyridin]-5′(6′H)-yl)-N-(pyrimidin-2-yl)acetamide], with 100 to 1000 nM; and `CC(C)c1cc2c([nH]1)C(=O)N(CC(=O)Nc1ncccn1)CC21CC1` [Compound 19, 2-(2′-Isopropyl-7′-oxo-1′,7′-dihydrospiro[cyclopropane-1,4′-pyrrolo[2,3-c]pyridin]-6′(5′H)-yl)-N-(pyrimidin-2-yl)acetamide], with 1000 to 3000 nM.
Consider `CC(C)c1cc2c(n1C)C(=O)N(CC(=O)Nc1ncccn1)CC21CC1` [Compound 20, 2-(2′-Isopropyl-1′-methyl-7′-oxo-1′,7′-dihydrospiro[cyclopropane-1,4′-pyrrolo[2,3-c]pyridin]-6′(5′H)-yl)-N-(pyrimidin-2-yl)acetamide], for which the IC50 is 1000 to 3000 nM.
Consider `CC(C)c1nc2c(n1C)C(=O)N(CC(=O)Nc1ncccn1)CC21CC1` [Compound 21], for which the half-inhibitory concentration (IC50) is 10000 to 50000 nM.
Then `CC(C)c1cc2n(n1)[C@H](C)CN(CC(=O)Nc1ncccn1)C2=O` [Compound 22, 2-[(7R)-7-Methyl-4-oxo-2-(propan-2-yl)-4H,5H,6H,7H-pyrazolo[1,5-a]pyrazin-5-yl]-N-(pyrimidin-2-yl)acetamide], with 10000 to 50000 nM.
`CCNc1cc2c(s1)C(=O)N(CC(=O)Nc1ncccn1)CC21CC1` [Compound 23, 2-(2′-(Ethylamino)-7′-oxo-5′H-spiro[cyclopropane-1,4′-thieno[2,3-c]pyridin]-6′(7′H)-yl)-N-(pyrimidin-2-yl)acetamide] returned a half-maximal inhibitory concentration (IC50) of 1000 to 3000 nM.
Then `Cc1cc2c(s1)C(=O)N(CC(=O)Nc1ncccn1)CC21CC1` [Compound 24, 2-(2′-Methyl-7′-oxo-5′H-spiro[cyclopropane-1,4′-thieno[2,3-c]pyridin]-6′(7′H)-yl)-N-(pyrimidin-2-yl)acetamide], with 1000 to 3000 nM; and `CC(C)c1cc2c(s1)C(=O)N(CC(=O)Nc1ncccn1)CC21CC1` [Compound 25, 2-(2′-Isopropyl-7′-oxo-5′H-spiro[cyclopropane-1,4′-thieno[2,3-c]pyridin]-6′(7′H)-yl)-N-(pyrimidin-2-yl)acetamide], with 100 to 1000 nM; and `O=C(CN1CC2(CC2)c2cc(C3CC3)sc2C1=O)Nc1ncccn1` [Compound 26, 2-(2′-Cyclopropyl-7′-oxo-5′H-spiro[cyclopropane-1,4′-thieno[2,3-c]pyridin]-6′(7′H)-yl)-N-(pyrimidin-2-yl)acetamide], with 100 to 1000 nM.
The result for `CC1(c2cc3c(s2)C(=O)N(CC(=O)Nc2ncccn2)CC32CC2)CC1` [Compound 27, 2-(2′-(1-Methylcyclopropyl)-7′-oxo-5′H-spiro[cyclopropane-1,4′-thieno[2,3-c]pyridin]-6′(7′H)-yl)-N-(pyrimidin-2-yl)acetamide] reads 100 to 1000 nM; that for `Cc1nc2c(cc3n2C(C)CN(CC(=O)Nc2ncccn2)C3=O)s1` (stereo not shown) [Compound 41], 10000 to 50000 nM.
